Converted amounts (≈) assume the structure as drawn. Positions of bridges follow the written chain, without caps; N, C: chain ends. Non-standard residues stand in square brackets, D forms with d. Residues, ends and D or L forms follow the SMILES beside them. S5 = C=CCCC[C@](C)(N)C(=O)O
Experiments:
[1] = in vitro; format: cell-based; conditions: human, Inhibitory Concentration at 50% Cytotoxicity (IC50) Human Liver Cells (HepG2)
Summary of the method: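 HepG2 cells in EMEM with 10% FBS, allowed 4 h to attach, then exposed to serial dilutions of StAMPs (from a 5 mg/mL water stock) or vehicle. After 48 h at 37 °C, viability read by CellTiter-Glo luminescence.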

[2] = tested on: S. aureus; format: cell-based, Staphylococcus aureus
Summary of the method: (§1)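 Broth microdilution adapted from CLSI in Mueller-Hinton broth or cation-adjusted MHB. Overnight 37 °C cultures were regrown 3-4 h, then added to serially diluted peptide at a final 5×10^5 CFU/ml. After 20-24 h at 37 °C, MIC was the lowest peptide concentration with no visible growth.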

[3] = tested on: K. pneumoniae; format: cell-based, Klebsiella pneumoniae
Summary of the method: as §1

[4] = tested on: A. baumannii; format: cell-based, Acinetobacter baumannii
Summary of the method: as §1

[5] = tested on: E. coli; format: cell-based, Escherichia coli
Summary of the method: as §1

[6] = tested on: P. aeruginosa; format: cell-based, Pseudomonas aeruginosa
Summary of the method: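 Broth microdilution adapted from CLSI in MHB or cation-adjusted MHB; log-phase P. aeruginosa at 5×10^5 CFU/ml final with serially diluted stapled peptides. Incubated 20-24 h at 37 °C; MIC is the lowest concentration without visible growth.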

[7] = in vitro; format: cell-based; conditions: human
Summary of the method: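 RPTEC or HepG2 cells plated overnight, given fresh media, then serial StAMP dilutions (from 5 mg/mL water stock) or vehicle at 37 °C. Cytotoxicity read as LDH release into media, absorbance 490 nm; renal toxicity after 90 min, liver toxicity after 48 h incubation.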

Row | Compound | IC50 at 48 hours [1] [µg/mL] | Minimum Inhibitory Concentration (MIC) S. aureus [2] [µg/mL] | Minimum Inhibitory Concentration (MIC) K. pneumoniae [3] [µg/mL] | Minimum Inhibitory Concentration (MIC) A. baumannii [4] [µg/mL] | Minimum Inhibitory Concentration (MIC) E. coli [5] [µg/mL] | Minimum Inhibitory Concentration (MIC) P. aeruginosa [6] [µg/mL] | IC50 at 90 min [7] [µg/mL]
1 | CC(C)[C@@H]1NC(=O)[C@@](C)(NC(=O)[C@H](C)NC(=O)[C@H](CCCCN)NC(=O)CNC(=O)[C@H](Cc2ccccc2)NC(=O)[C@H](CCCCN)NC(=O)[C@H](CCCCN)NC(=O)[C@H](CCCCN)NC(=O)[C@H](CO)NC(=O)[C@H](Cc2c[nH]cn2)NC(=O)[C@]2(C)CCCC=CCCC[C@](C)(NC(=O)CN)C(=O)NCC(=O)N[C@@H](Cc3c[nH]c4ccccc34)C(=O)N[C@@H](Cc3ccccc3)C(=O)N2)CCCC=CCCC[C@@](C)(C(=O)N[C@@H](C)C(=O)N[C@@H](CCCCN)C(=O)N[C@@H](CCCCN)C(N)=O)NC(=O)[C@H](CCC(=O)O)NC(=O)CNC1=O [compound 58] (H-G[S5]GWF[S5]HSKKKFGKA[S5]VGE[S5]AKK-NH2; staple 2-6, 16-20) | > 200 | >64 | >64 | 8 | 16 | 32 | > 200
2 | CC(C)[C@@H]1NC(=O)[C@@](C)(NC(=O)[C@H](C)NC(=O)[C@H](CCCCN)NC(=O)CNC(=O)[C@H](Cc2ccccc2)NC(=O)[C@H](CCCCN)NC(=O)[C@H](CCCCN)NC(=O)[C@H](CCCCN)NC(=O)[C@H](CO)NC(=O)[C@H](Cc2c[nH]cn2)NC(=O)[C@]2(C)CCCC=CCCC[C@](C)(NC(=O)CN)C(=O)NCC(=O)N[C@@H](CCCCN)C(=O)N[C@@H](Cc3c[nH]c4ccccc34)C(=O)N2)CCCC=CCCC[C@@](C)(C(=O)N[C@@H](C)C(=O)N[C@@H](CCCCN)C(=O)N[C@@H](CCCCN)C(N)=O)NC(=O)[C@H](CCC(=O)O)NC(=O)CNC1=O [compound 59] (H-G[S5]GKW[S5]HSKKKFGKA[S5]VGE[S5]AKK-NH2; staple 2-6, 16-20) | > 200 | >64 | 64 | 4 | 4 | 8 | > 200
3 | CC(C)[C@@H]1NC(=O)[C@@](C)(NC(=O)[C@H](C)NC(=O)[C@H](CCCCN)NC(=O)CNC(=O)[C@H](Cc2ccccc2)NC(=O)[C@H](CCCCN)NC(=O)[C@H](CCCCN)NC(=O)[C@H](CCCCN)NC(=O)[C@H](CO)NC(=O)[C@H](Cc2c[nH]c3ccccc23)NC(=O)[C@]2(C)CCCC=CCCC[C@](C)(NC(=O)CN)C(=O)NCC(=O)N[C@@H](CCCCN)C(=O)N[C@@H](Cc3ccccc3)C(=O)N2)CCCC=CCCC[C@@](C)(C(=O)N[C@@H](C)C(=O)N[C@@H](CCCCN)C(=O)N[C@@H](CCCCN)C(N)=O)NC(=O)[C@H](CCC(=O)O)NC(=O)CNC1=O [compound 60] (H-G[S5]GKF[S5]WSKKKFGKA[S5]VGE[S5]AKK-NH2; staple 2-6, 16-20) | 56 (≈ 21.7 µM) | >64 | 32 | 4 | 4 | 8 | 108 (≈ 41.8 µM)
4 | CC(C)[C@@H]1NC(=O)[C@@](C)(NC(=O)[C@H](C)NC(=O)[C@H](CCCCN)NC(=O)CNC(=O)[C@H](Cc2ccccc2)NC(=O)[C@H](CCCCN)NC(=O)[C@H](CCCCN)NC(=O)[C@H](CCCCN)NC(=O)[C@H](Cc2c[nH]c3ccccc23)NC(=O)[C@H](Cc2c[nH]cn2)NC(=O)[C@]2(C)CCCC=CCCC[C@](C)(NC(=O)CN)C(=O)NCC(=O)N[C@@H](CCCCN)C(=O)N[C@@H](Cc3ccccc3)C(=O)N2)CCCC=CCCC[C@@](C)(C(=O)N[C@@H](C)C(=O)N[C@@H](CCCCN)C(=O)N[C@@H](CCCCN)C(N)=O)NC(=O)[C@H](CCC(=O)O)NC(=O)CNC1=O [compound 61] (H-G[S5]GKF[S5]HWKKKFGKA[S5]VGE[S5]AKK-NH2; staple 2-6, 16-20) | > 200 | >64 | 64 | 4 | 8 | 8 | 150 (≈ 57 µM)
5 | CC(C)[C@@H]1NC(=O)[C@@](C)(NC(=O)[C@H](C)NC(=O)[C@H](CCCCN)NC(=O)[C@H](Cc2c[nH]c3ccccc23)NC(=O)[C@H](Cc2c[nH]c3ccccc23)NC(=O)[C@H](CCCCN)NC(=O)[C@H](CCCCN)NC(=O)[C@H](CCCCN)NC(=O)[C@H](CO)NC(=O)[C@H](Cc2c[nH]cn2)NC(=O)[C@]2(C)CCCC=CCCC[C@](C)(NC(=O)CN)C(=O)NCC(=O)N[C@@H](CCCCN)C(=O)N[C@@H](Cc3ccccc3)C(=O)N2)CCCC=CCCC[C@@](C)(C(=O)N[C@@H](C)C(=O)N[C@@H](CCCCN)C(=O)N[C@@H](CCCCN)C(N)=O)NC(=O)[C@H](CCC(=O)O)NC(=O)CNC1=O [compound 62] (H-G[S5]GKF[S5]HSKKKWWKA[S5]VGE[S5]AKK-NH2; staple 2-6, 16-20) | 35 (≈ 13 µM) | >64 | 8 | 4 | 16 | 16 | 30 (≈ 11.1 µM)
6 | CC(C)[C@@H]1NC(=O)[C@@](C)(NC(=O)[C@H](Cc2c[nH]c3ccccc23)NC(=O)[C@H](CCCCN)NC(=O)CNC(=O)[C@H](Cc2ccccc2)NC(=O)[C@H](CCCCN)NC(=O)[C@H](CCCCN)NC(=O)[C@H](CCCCN)NC(=O)[C@H](CO)NC(=O)[C@H](Cc2c[nH]cn2)NC(=O)[C@]2(C)CCCC=CCCC[C@](C)(NC(=O)CN)C(=O)NCC(=O)N[C@@H](CCCCN)C(=O)N[C@@H](Cc3ccccc3)C(=O)N2)CCCC=CCCC[C@@](C)(C(=O)N[C@@H](C)C(=O)N[C@@H](CCCCN)C(=O)N[C@@H](CCCCN)C(N)=O)NC(=O)[C@H](CCC(=O)O)NC(=O)CNC1=O [compound 63] (H-G[S5]GKF[S5]HSKKKFGKW[S5]VGE[S5]AKK-NH2; staple 2-6, 16-20) | 60 (≈ 22.7 µM) | 16 | 8 | 4 | 4 | 6 | 32 (≈ 12.1 µM)
7 | C[C@H](NC(=O)[C@H](CCCCN)NC(=O)CNC(=O)[C@H](Cc1ccccc1)NC(=O)[C@H](CCCCN)NC(=O)[C@H](CCCCN)NC(=O)[C@H](CCCCN)NC(=O)[C@H](CO)NC(=O)[C@H](Cc1c[nH]cn1)NC(=O)[C@]1(C)CCCC=CCCC[C@](C)(NC(=O)CN)C(=O)NCC(=O)N[C@@H](CCCCN)C(=O)N[C@@H](Cc2ccccc2)C(=O)N1)C(=O)N[C@@]1(C)CCCC=CCCC[C@@](C)(C(=O)N[C@@H](C)C(=O)N[C@@H](CCCCN)C(=O)N[C@@H](CCCCN)C(N)=O)NC(=O)[C@H](CCC(=O)O)NC(=O)CNC(=O)[C@H](Cc2c[nH]c3ccccc23)NC1=O [compound 64] (H-G[S5]GKF[S5]HSKKKFGKA[S5]WGE[S5]AKK-NH2; staple 2-6, 16-20) | > 200 | 16 | 32 | 4 | 4 | 8 | > 200
8 | CC(C)[C@@H]1NC(=O)[C@@](C)(NC(=O)[C@H](C)NC(=O)[C@H](CCCCN)NC(=O)CNC(=O)[C@H](Cc2ccccc2)NC(=O)[C@H](CCCCN)NC(=O)[C@H](CCCCN)NC(=O)[C@H](CCCCN)NC(=O)[C@H](CO)NC(=O)[C@H](Cc2c[nH]cn2)NC(=O)[C@]2(C)CCCC=CCCC[C@](C)(NC(=O)CN)C(=O)NCC(=O)N[C@@H](CCCCN)C(=O)N[C@@H](Cc3ccccc3)C(=O)N2)CCCC=CCCC[C@@](C)(C(=O)N[C@@H](C)C(=O)N[C@@H](CCCCN)C(=O)N[C@@H](CCCCN)C(N)=O)NC(=O)[C@H](Cc2c[nH]c3ccccc23)NC(=O)CNC1=O [compound 66] (H-G[S5]GKF[S5]HSKKKFGKA[S5]VGW[S5]AKK-NH2; staple 2-6, 16-20) | 38 (≈ 14.7 µM) | 32 | 4 | 4 | 4 | 6 | 16 (≈ 6.18 µM)

From patent publication US20240174723A1, “STAPLED ANTIMICROBIAL PEPTIDES (STAMPS) AND USES THEREOF” (Lytica Therapeutics, Inc., priority 2021, published 2024)
